# Test results published in patent US7786054B2, “Biocide for well stimulation and treatment fluids” (Kemira Chemicals, Inc., priority 2006, dated 2010).
# Entries after “also recorded” stand apart in the source; their conditions may differ.
# Tests used:
# [1] = test system: sulfate reducing bacteria (SRB); assay: Biocidal effectiveness on sulfate reducing bacteria in spiked frac pond water, serial dilution counts over 180 days with challenges; format: cell-based; conditions: for control of SRB in frac pond water (summary in words): up to 180 days contact time, challenges at 14, 28 and 129 days
# Experimental: (§1) In this example, the biocidal effectiveness on sulfate reducing bacteria (SRB) and acid producing bacteria (AB) for biocide formulations containing CB Thione and WB Thione to Glut and THPS was examined.
# (§2) A one gallon sample was separated from a five gallon sample of frac pond water for these studies. The frac pond water sample included SRB and AB. Ten mL of a 10^9 cfu/mL inoculum of SRB grown in anaerobic API broth containing an O2 scavenger and 10 mL of a 10^9 cfu/mL inoculum of AB grown in anaerobic phenol red (anPR) broth containing an O2 scavenger were added to the one gallon frac pond water sample, mixed well and allowed to incubate for a period of time sufficient to achieve a desired number of SRB and AB. All broth media for inoculum and serial dilution counts in this study was made at 4% salinity to match the salinity of the original frac pond water measured by total dissolved solids testing. To increase nutrient value and to emulate on-site friction reducing additives, a 30 weight % acrylic acid, 70% acrylamide copolymer was added to the inoculated gallon of frac pond water sample at 300 ppm and then referred to as the spiked frac pond water sample. The spiked sample was then divided into 99.0 g aliquots for testing the effect of various biocides at various concentrations on the SRB and AB over a 180 day contact time. One spiked aliquot would serve as the control sample to which no biocide would be added. Challenges were made to all aliquots using 0.5 mL of 10^8 SRB and 0.5 mL, of 10^8 AB at 14, 28, and 129 days contact time.
# (§3) The biocides included a 20% water based Thione (WB Thione), a 24% caustic based Thione (CB Thione), a 25% Glut, and a 35% THPS. Stock biocide solutions of various concentrations were made from these biocides as described below.
# (§4) The WB Thione stock solutions were prepared by adding 3.0 g of the biocide to 17.0 g of sterile distilled water to form an intermediate solution, followed by combining each intermediate solution with water in the accounts shown in Table 1 below to make the descending concentrations as shown in Table 1.
# as §4, with “The CB” for “The WB”, “the amounts” for “the accounts”, “Table 2” for “Table 1”, “Table 2.” for “Table 1.”
# (§5) The Glut stock solutions were prepared by adding 1.0 g biocide to 19.0 g of sterile distilled water to form an intermediate solution, followed by combining each intermediate solution with water in the amounts shown in Table 3 below to make the descending concentrations as shown in Table 3.
# (§6) The THPS stock solutions were prepared by adding 1.0 g of the biocide to 19.0 g of sterile distilled water to form an intermediate solution, followed by combining each intermediate solution with water in the amounts shown in Table 4 below to make the descending concentrations as shown in Table 4.
# (§7) Next, 1 g of each biocide stock solution was added to the appropriately labeled 99.0 g aliquot. Also, 1.0 g of sterile water was added to the control aliquot. The concentrations of the biocides present in each aliquot are provided below in Table 5.
# (§8) The aliquots were then incubated at room temperature in the dark for the entire study, i.e., 6 months. […] Using sterile syringes, this testing was performed by serial diluting the aliquots into sealed 9.0 mL anaerobic API broth and anaerobic PR broth bottles, both media containing an O2 scavenger, in the appropriate labeled set of SRB bottles (6 for each aliquot) mid AB bottles (6 for each aliquot) until a color change occurred, indicating the log quantity of organisms present in each aliquot.
# [2] = test system: acid producing bacteria (AB); assay: Biocidal effectiveness on acid producing bacteria in spiked frac pond water, serial dilution counts over 180 days with challenges; format: cell-based; conditions: for control of AB in frac pond water (summary in words): up to 180 days contact time, challenges at 14, 28 and 129 days
# Experimental: as §1, §2, §3, §4
# as §4, with “The CB” for “The WB”, “the amounts” for “the accounts”, “Table 2” for “Table 1”, “Table 2.” for “Table 1.”
# as §5, §6, §7, §8
# [3] = 500 ppm as is (Glut, THPS), 7 Days
# [4] = 500 ppm as is (Glut, THPS), 14 Days
# [5] = 500 ppm as is (Glut, THPS), 21 Days
# [6] = 500 ppm as is (Glut, THPS), 28 Days
# [7] = 500 ppm as is (Glut, THPS), 35 Days
# [8] = 500 ppm as is (Glut, THPS), 42 Days
# [9] = 500 ppm as is (Glut, THPS), 58 Days
# [10] = 500 ppm as is (Glut, THPS), 90 Days
smiles,measurement,setting,value
"CN1CSC(=S)N(C)C1 [Thione, 3,5-dimethyl-1,3,5-thiadiazinane-2-thione]",control of SRB in frac pond water (summary in words),[1],much more effective at inhibiting SRB and AB growth in frac water than the Glut and THPS treatments; also recorded: exceptional control over both the short and long term for SRB through 3 substantial challenges
same,control of AB in frac pond water (summary in words),[2],much more effective at inhibiting SRB and AB growth in frac water than the Glut and THPS treatments
"O=S(=O)([O-])[O-].OC[P+](CO)(CO)CO.OC[P+](CO)(CO)CO [THPS, tetra-kis-hydroxymethyly-phosphonium sulfate]",Log 10 Anaerobic Sulfate Reducing Bacteria/mL,"[1]; 60 ppm as is (DA), 7 Days",≧6 Log 10 Bacteria/mL
same,Log 10 Anaerobic Sulfate Reducing Bacteria/mL,"[1]; 60 ppm as is (DA), 14 Days",≧6 Log 10 Bacteria/mL
same,Log 10 Anaerobic Sulfate Reducing Bacteria/mL,"[1]; 60 ppm as is (DA), 21 Days",≧5 Log 10 Bacteria/mL
same,Log 10 Anaerobic Sulfate Reducing Bacteria/mL,"[1]; 60 ppm as is (DA), 28 Days",≧6 Log 10 Bacteria/mL
same,Log 10 Anaerobic Sulfate Reducing Bacteria/mL,"[1]; 60 ppm as is (DA), 35 Days",≧6 Log 10 Bacteria/mL
same,Log 10 Anaerobic Sulfate Reducing Bacteria/mL,"[1]; 60 ppm as is (DA), 42 Days",≧6 Log 10 Bacteria/mL
same,Log 10 Anaerobic Sulfate Reducing Bacteria/mL,"[1]; 60 ppm as is (DA), 58 Days",≧6 Log 10 Bacteria/mL
same,Log 10 Anaerobic Sulfate Reducing Bacteria/mL,"[1]; 60 ppm as is (DA), 90 Days",≧6 Log 10 Bacteria/mL
same,Log 10 Anaerobic Sulfate Reducing Bacteria/mL,"[1]; 100 ppm as is, 7 Days",5 Log 10 Bacteria/mL
same,Log 10 Anaerobic Sulfate Reducing Bacteria/mL,"[1]; 100 ppm as is, 14 Days",5 Log 10 Bacteria/mL
same,Log 10 Anaerobic Sulfate Reducing Bacteria/mL,"[1]; 100 ppm as is, 21 Days",≧5 Log 10 Bacteria/mL
same,Log 10 Anaerobic Sulfate Reducing Bacteria/mL,"[1]; 100 ppm as is, 28 Days",≧6 Log 10 Bacteria/mL
same,Log 10 Anaerobic Sulfate Reducing Bacteria/mL,"[1]; 100 ppm as is, 35 Days",≧6 Log 10 Bacteria/mL
same,Log 10 Anaerobic Sulfate Reducing Bacteria/mL,"[1]; 100 ppm as is, 42 Days",≧6 Log 10 Bacteria/mL
same,Log 10 Anaerobic Sulfate Reducing Bacteria/mL,"[1]; 100 ppm as is, 58 Days",≧6 Log 10 Bacteria/mL
same,Log 10 Anaerobic Sulfate Reducing Bacteria/mL,"[1]; 100 ppm as is, 90 Days",≧6 Log 10 Bacteria/mL
same,Log 10 Anaerobic Sulfate Reducing Bacteria/mL,"[1]; 200 ppm as is, 7 Days",0 Log 10 Bacteria/mL
same,Log 10 Anaerobic Sulfate Reducing Bacteria/mL,"[1]; 200 ppm as is, 14 Days",0 Log 10 Bacteria/mL
same,Log 10 Anaerobic Sulfate Reducing Bacteria/mL,"[1]; 200 ppm as is, 21 Days",≧6 Log 10 Bacteria/mL
same,Log 10 Anaerobic Sulfate Reducing Bacteria/mL,"[1]; 200 ppm as is, 28 Days",≧6 Log 10 Bacteria/mL
same,Log 10 Anaerobic Sulfate Reducing Bacteria/mL,"[1]; 200 ppm as is, 35 Days",≧6 Log 10 Bacteria/mL
same,Log 10 Anaerobic Sulfate Reducing Bacteria/mL,"[1]; 200 ppm as is, 42 Days",≧6 Log 10 Bacteria/mL
same,Log 10 Anaerobic Sulfate Reducing Bacteria/mL,"[1]; 200 ppm as is, 58 Days",≧6 Log 10 Bacteria/mL
same,Log 10 Anaerobic Sulfate Reducing Bacteria/mL,"[1]; 200 ppm as is, 90 Days",≧6 Log 10 Bacteria/mL
same,Log 10 Anaerobic Sulfate Reducing Bacteria/mL,[1]; [3],0 Log 10 Bacteria/mL
same,Log 10 Anaerobic Sulfate Reducing Bacteria/mL,[1]; [4],0 Log 10 Bacteria/mL
same,Log 10 Anaerobic Sulfate Reducing Bacteria/mL,[1]; [5],4 Log 10 Bacteria/mL
same,Log 10 Anaerobic Sulfate Reducing Bacteria/mL,[1]; [6],3 Log 10 Bacteria/mL
same,Log 10 Anaerobic Sulfate Reducing Bacteria/mL,[1]; [7],3 Log 10 Bacteria/mL
same,Log 10 Anaerobic Sulfate Reducing Bacteria/mL,[1]; [8],≧6 Log 10 Bacteria/mL
same,Log 10 Anaerobic Sulfate Reducing Bacteria/mL,[1]; [9],≧6 Log 10 Bacteria/mL
same,Log 10 Anaerobic Sulfate Reducing Bacteria/mL,[1]; [10],≧6 Log 10 Bacteria/mL
same,control of SRB in frac pond water (summary in words),[1],lost all control of SRB and AB from 1 to 21 days contact time; also recorded: failed completely after challenging once at 14 days contact time at all concentrations
same,Log 10 Anaerobic Acid Producing Bacteria/mL,"[2]; 50 ppm as is, 7 Days",5 Log 10 Bacteria/mL
same,Log 10 Anaerobic Acid Producing Bacteria/mL,"[2]; 50 ppm as is, 14 Days",≧6 Log 10 Bacteria/mL
same,Log 10 Anaerobic Acid Producing Bacteria/mL,"[2]; 50 ppm as is, 21 Days",≧6 Log 10 Bacteria/mL
same,Log 10 Anaerobic Acid Producing Bacteria/mL,"[2]; 50 ppm as is, 28 Days",≧6 Log 10 Bacteria/mL
same,Log 10 Anaerobic Acid Producing Bacteria/mL,"[2]; 50 ppm as is, 35 Days",≧6 Log 10 Bacteria/mL
same,Log 10 Anaerobic Acid Producing Bacteria/mL,"[2]; 50 ppm as is, 42 Days",≧6 Log 10 Bacteria/mL
same,Log 10 Anaerobic Acid Producing Bacteria/mL,"[2]; 50 ppm as is, 58 Days",≧6 Log 10 Bacteria/mL
same,Log 10 Anaerobic Acid Producing Bacteria/mL,"[2]; 50 ppm as is, 90 Days",≧6 Log 10 Bacteria/mL
same,Log 10 Anaerobic Acid Producing Bacteria/mL,"[2]; 100 ppm as is, 7 Days",5 Log 10 Bacteria/mL
same,Log 10 Anaerobic Acid Producing Bacteria/mL,"[2]; 100 ppm as is, 14 Days",5 Log 10 Bacteria/mL
same,Log 10 Anaerobic Acid Producing Bacteria/mL,"[2]; 100 ppm as is, 21 Days",≧6 Log 10 Bacteria/mL
same,Log 10 Anaerobic Acid Producing Bacteria/mL,"[2]; 100 ppm as is, 28 Days",≧6 Log 10 Bacteria/mL
same,Log 10 Anaerobic Acid Producing Bacteria/mL,"[2]; 100 ppm as is, 35 Days",≧6 Log 10 Bacteria/mL
same,Log 10 Anaerobic Acid Producing Bacteria/mL,"[2]; 100 ppm as is, 42 Days",≧6 Log 10 Bacteria/mL
same,Log 10 Anaerobic Acid Producing Bacteria/mL,"[2]; 100 ppm as is, 58 Days",≧6 Log 10 Bacteria/mL
same,Log 10 Anaerobic Acid Producing Bacteria/mL,"[2]; 100 ppm as is, 90 Days",≧5 Log 10 Bacteria/mL
same,Log 10 Anaerobic Acid Producing Bacteria/mL,"[2]; 200 ppm as is, 7 Days",1 Log 10 Bacteria/mL
same,Log 10 Anaerobic Acid Producing Bacteria/mL,"[2]; 200 ppm as is, 14 Days",0 Log 10 Bacteria/mL
same,Log 10 Anaerobic Acid Producing Bacteria/mL,"[2]; 200 ppm as is, 21 Days",≧6 Log 10 Bacteria/mL
same,Log 10 Anaerobic Acid Producing Bacteria/mL,"[2]; 200 ppm as is, 28 Days",≧6 Log 10 Bacteria/mL
same,Log 10 Anaerobic Acid Producing Bacteria/mL,"[2]; 200 ppm as is, 35 Days",≧6 Log 10 Bacteria/mL
same,Log 10 Anaerobic Acid Producing Bacteria/mL,"[2]; 200 ppm as is, 42 Days",≧6 Log 10 Bacteria/mL
same,Log 10 Anaerobic Acid Producing Bacteria/mL,"[2]; 200 ppm as is, 58 Days",≧6 Log 10 Bacteria/mL
same,Log 10 Anaerobic Acid Producing Bacteria/mL,"[2]; 200 ppm as is, 90 Days",≧6 Log 10 Bacteria/mL
same,Log 10 Anaerobic Acid Producing Bacteria/mL,[2]; [3],0 Log 10 Bacteria/mL
same,Log 10 Anaerobic Acid Producing Bacteria/mL,[2]; [4],0 Log 10 Bacteria/mL
same,Log 10 Anaerobic Acid Producing Bacteria/mL,[2]; [5],4 Log 10 Bacteria/mL
same,Log 10 Anaerobic Acid Producing Bacteria/mL,[2]; [6],3 Log 10 Bacteria/mL
same,Log 10 Anaerobic Acid Producing Bacteria/mL,[2]; [7],4 Log 10 Bacteria/mL
same,Log 10 Anaerobic Acid Producing Bacteria/mL,[2]; [8],3 Log 10 Bacteria/mL
same,Log 10 Anaerobic Acid Producing Bacteria/mL,[2]; [9],≧6 Log 10 Bacteria/mL
same,Log 10 Anaerobic Acid Producing Bacteria/mL,[2]; [10],≧6 Log 10 Bacteria/mL
same,control of AB in frac pond water (summary in words),[2],lost all control of SRB and AB from 1 to 21 days contact time; also recorded: failed after challenging once at 14 days contact time
